The values below come from article PMC7179167 (Molecules, 2020).

In brackets after ≈: the same amount, converted by molar mass. Where two headings read alike, the source gives them in different places.

One assay relates to B. subtilis (ATCC 6633). Put plainly: Disk diffusion antimicrobial test, B. subtilis. Type of assay: cell-based, Bacillus subtilis. The note with it: Bacillus subtilis, ATCC6633, Gram-positive, 20 mg per disc (title), concentration 20 µg (footnote). Here is the method: (§1) The newly synthesized compounds were chosen to be evaluated in vitro towards a variety of pathogenic microorganisms; Gram-positive bacteria: S. aureus (ATCC 6538) and B. subtilis (ATCC 6633); Gram-negative bacteria: P. areuginosa (ATCC 27853) and E. coli (DSMZ 1058); yeast: C. albicans (ATCC 10231) and S. cerevisiae (ATCC 9080) and fungi: A. niger (NRRL A-326) using the disk diffusion method at a single dose of 20 µl. The results are shown in Table 1 as the growth inhibition zone (mm).
(§2) The antimicrobial activity of target compounds were evaluated to be in vitro against a variety of pathogenic microorganisms, namely Staphylococcus aureus (ATCC 6538), Bacillus subtilis (ATCC 6633) (Gram-positive bacteria), Pseudomonas areuginosa (ATCC 27853), Escherichia coli (DSMZ 1058) (Gram-negative bacteria), Candida albicans (ATCC 10231), Saccharomyces cerevisiae (ATCC 9080) (Yeast) and Aspergillus niger (NRRL A-326) (Fungi) using the disk diffusion method at a single dose of 20 µg. The microorganisms were served and obtained from the Microbial Biotechnology Department, National Research Center, Giza, Egypt. Amphotericin, amoxicillin and ciprofloxacin were used as reference drugs (Oxoid™ Disks). The tested compounds 11a–c, 12a–c, 13a–i, 14a–i and 15a,b were dissolved in dimethylsulphoxide (DMSO) at a concentration of 1 mg/mL. Aliquots of 20 μl were soaked on filter paper discs (6 mm) and dried at room temperature under sterilized conditions. The paper discs were placed on inoculated agar plats and then incubated for 24 h at 37 °C for bacterial strains and after 48–72 h incubation at 30 °C for fungi. Both bacterial and yeast strains were grown on nutrient agar medium (g/l): beef extract, 3; peptone, 10 and agar, 20 at pH of 7.2. The fungal strain was grown on Czapek-Dox medium (g/l): sucrose, 30; NaNO3, 3; MgSO4.7H2O, 0.5l; KCl, 0.5; FeSO4, 0.01; K2HPO4, 1 and agar, 20 at pH of 6.0.

Assay [1] deals with S. cerevisiae (ATCC 9080). Put plainly: Disk diffusion antimicrobial test, S. cerevisiae. Type of assay: cell-based. The note with it: Saccharomyces cerevisiae, ATCC9080, yeast, 20 mg per disc (title), concentration 20 µg (footnote). As to the method: as §1, §2
A short description of assay [2]: DPPH free radical scavenging assay. The note with it: concentration of 20µg/l, mean ± SD of three experiments. Type of assay: biochemical. The gist of the method: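 Compound DMSO stock (1 mg/mL) added to fresh DPPH in DMSO (20 mg/L), vortexed 1 min, kept dark for 15–60 min. Absorbance at 517 nm; % scavenging = (A control − A sample)/A control × 100; triplicates averaged. Ascorbic acid served as reference.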

In assay [3] the test system is MCF-7 (human breast cancer). Put plainly: MTT cytotoxicity assay, MCF-7. The format is cell-based. The note with it: for inhibition at 100 µg/mL: MCF7, 100 µg/ml, 48 h, read-out: Growth Inhibition (%) MCF-7; for IC50: MCF7, 48 h post-treatment.
Description: (§5) MCF-7 (human breast cancer), HCT-116 (human colon cancer) and HepG2 (human liver cancer) cell lines were obtained from Karolinska Institute, Stockholm, Sweden. All cells were maintained in RPMI 1640 medium. The media were supplemented with 10% heat-inactivated fetal bovine serum plus 1% antibiotic-antimycoticmixture (10,000 U/mL of potassium penicillin, 10,000 μg/mL of streptomycin sulfate, 25 μg/mL of amphotericin B and 1% of L glutamine (Biowest, USA)). BJ-1 of a human skin fibroblast derived from normal foreskin was obtained from ATCC® CRL-2522™ as a frozen ampoule with about 1 × 10^6 cells per 1 ml volume. BJ-1 was maintained in MEM with 2 mM of L-glutamine and Earle’s salts medium.
(§6) Cell viability was studied using the MTT 3-(4,5-dimethylthiazol-2-yl)-2,5-diphenyl-tetrazolium bromide (Bio Basic Canada Inc. Toronto, Canada) assay [33]. The steps were executed in a sterile laminar air flow cabinet biosafety class II level (Baker, SG403INT; Sanford, ME, USA). All incubations were carried out at 37 °C in a 5% CO2 incubator under a humidified atmosphere of 95% (Sheldon, TC2323; Cornelius, OR, USA). Cells were seeded into 96-well microtiter plastic plates at a concentration of (10^4 cells/well) and allowed to adhere for 24 h. The medium was aspirated and then added to the cells with the test compounds 11a–c, 12a–c, 13a–i, 14a–i and 15a,b at a single dose of 100 μg/mL in DMSO. After incubation of the medium for 48 h, 40 μL of MTT salt (2.5 μg/mL) was added to each well and then incubated for an additional 4 h. To stop the reaction and dissolve any formed formazan crystals, 200 μL of 10% sodium dodecyl sulfate (SDS) were added to each well and incubated overnight at 37 °C. The amount of formazan product was measured at 595 nm with a reference wavelength of 690 nm as a background using a microplate reader (Bio-Rad Laboratories, model 3350, California, USA). For the untreated cells (negative control), the medium was added instead of the tested compounds. […] Dimethylsulfoxide (DMSO) was the vehicle used for dissolution of the testing compound, and its final concentration on the cells was less than 0.2%. At the same dilution, the solvent concentration was the same for all drugs and between the control and drug treatments.
Assay [4] concerns normal skin fibroblast cells (BJ-1). Put plainly: MTT cytotoxicity assay, normal skin fibroblast BJ-1. The note with it: Homo sapiens, 48 h, read-out: Growth Inhibition (%) BJ-1. Type of assay: cell-based.
Description: as §5, §6
Assay [5] deals with p53. Put plainly: p53 ELISA in MCF-7 cells. The format is cell-based, human. The note with it: MCF-7 cells treated at IC50 concentration; control 4.18 ± 0.58; mean ± SD. The source says:
(§3) The promising antiproliferative results reported for compounds 11a, 11b, 12a, 12b and 13c against cell lines under study have prompted us to investigate the mechanism of cell death induced by these compounds. Apoptosis induction was examined in both MCF-7 and HCT-116 cancer cells by assaying the level of its key protein markers, namely: proapoptotic (p53, Bcl 2-associated X, Bax and caspases3) and antiapoptotic (B-cell lymphoma-2, Bcl-2). MCF-7 and HCT-116 cells undergoing apoptosis was detected by use of the ELISA technique. Protein marker levels were quantified according to Bradford assay.
(§4) Briefly, cells ([…] and HCT) were seeded at a concentration of 1.2–1.8 × 10^3 cells/well in 6-well plates. After 48-h treatment, the collected cells were lysed and centrifuged at 10,000 rpm for 20 min at 4 °C. The protein concentration was measured in the supernatant by Bradford protein assay. Volume containing […] of total protein was incubated with […] of caspase substrate in […] of the reaction buffer at 37 °C for 1 h in the dark. Caspase-3 activity was determined by a microplate reader at 405 nm using a caspase-3 colorimetric assay kit (Abcam) according to the manufacturer’s instructions. In vitro protein level quantitative measurement of apoptotic marker p53, Bcl-2-associated X (Bax) and antiapoptotic marker B-cell lymphoma-2 (Bcl-2) in cell lysate were assessed by Enzyme-Linked Immunosorbent Assay Simple Step ELISA® (ab199080, ab119506 and ab171571; Abcam) according to the manufacturer’s instructions.

Assay [6] concerns Bax. Put plainly: Bax ELISA in MCF-7 cells. Type of assay: cell-based, human. The note with it: MCF-7 cells treated at IC50 concentration; control 39.56 ± 4.56; mean ± SD.
Description: as §3, §4

In assay [7] the test system is p53. Put plainly: p53 ELISA in HCT-116 cells. The format is cell-based, human. To be noted: HCT-116 cells treated at IC50 concentration; control 1.68 ± 0.06; mean ± SD.
Description: as §3, §4

Assay [8] deals with Bax. Put plainly: Bax ELISA in HCT-116 cells. The format is cell-based, human. To be noted: HCT-116 cells treated at IC50 concentration; control 118.54 ± 0.83; mean ± SD.
Description: as §3, §4

Where [9] appears, read: 15 min, read-out: Scavenging Activity (%) on DPPH radicals at 15 min.
The mark [10] stands for this setting: 30 min, read-out: Scavenging Activity (%) on DPPH radicals at 30 min.
The mark [11] stands for this setting: 45 min, read-out: Scavenging Activity (%) on DPPH radicals at 45 min.
The mark [12] stands for this setting: 60 min, read-out: Scavenging Activity (%) on DPPH radicals at 60 min.

Turning to `COc1c(C2=NNC3(C2)C(=O)Nc2ccccc23)c(O)cc2occc12` (stereo not shown) [Compound 11a, 5’-(6-Hydroxy-4-methoxy-benzofuran-5-yl)-2’,4’-dihydrospiro(indoline-3,3’-pyrazol)-2-one], the zone of inhibition at 20 µg/disc in the assay with B. subtilis (ATCC 6633) came to 12 mm; in assay [1], 16 mm. The inhibition in assay [2] (setting [9]) is 6.86 ± 1.17%; in assay [2] (setting [10]), 10.3 ± 1.37%; in assay [2] (setting [11]) it was 17.7 ± 1.28%; in assay [2] (setting [12]), 26.9 ± 1.56%. For the same compound, the inhibition at 100 µg/mL in assay [3] was determined as 94.3%; in assay [4], 6.2%. This compound also displayed an IC50 in assay [3] of 21.1 µg/mL (≈ 60.4 µM). Besides, in the assay with p53 [5], the “p53 (Pg/50 mg Protein)” value was 14.45 ± 0.82 Pg/50 mg Protein. Moreover, the “Bax (pg/50 mg Protein)” value with Bax [6] came out at 122.34 ± 3.45 pg/50 mg Protein; in the assay with Bax [8] it was 159.26 ± 0.96 pg/50 mg Protein. In addition, in the assay on p53 [7], the “p53 (pg/50 mg Protein)” value is given as 16.2 ± 0.56 pg/50 mg Protein.
`COc1c(C2=NNC3(C2)C(=O)Nc2ccccc23)c(O)c(OC)c2occc12` (stereo not shown) [Compound 12a, 5’-(6-Hydroxy-4,7-dimethoxy-benzofuran-5-yl)-2’,4’-dihydrospiro(indoline-3,3’-pyrazol)-2-one]: the results for the zone of inhibition at 20 µg/disc (with B. subtilis (ATCC 6633); in assay [1]) were 16 mm and 10 mm, respectively. For the same compound, the inhibition in assay [2] (setting [9]) amounted to 56.4 ± 1.08%; in assay [2] (setting [10]) it was 67.1 ± 1.45%; in assay [2] (setting [11]), 76.9 ± 1.51%; in assay [2] (setting [12]) it was 81.4 ± 1.37%. The inhibition at 100 µg/mL in assay [3] was found to be 93.6%; in [4], 9.1%. The same compound had an IC50 in [3] of 20.2 µg/mL (≈ 53.2 µM). Moreover, the “p53 (Pg/50 mg Protein)” value with p53 [5] came out at 13.31 ± 1.08 Pg/50 mg Protein. In addition, the entries for the “Bax (pg/50 mg Protein)” value in the assay with Bax [6] and with Bax [8] were 113.09 ± 1.98 pg/50 mg Protein and 124.56 ± 0.95 pg/50 mg Protein, respectively. Also, in the assay with p53 [7], the “p53 (pg/50 mg Protein)” value is reported as 23.11 ± 1.22 pg/50 mg Protein.
In the case of `COc1c(C2=NNC3(C2)C(=O)Nc2ccccc23)c(OC)c2ccoc2c1OC` (stereo not shown) [Compound 12b, 5’-(4,6,7-Trimethoxy-benzofuran-5-yl)-2’,4’-dihydrospiro(indoline-3,3’-pyrazol)-2-one], the results for the zone of inhibition at 20 µg/disc (with B. subtilis (ATCC 6633); in assay [1]) were 18 mm and 10 mm, respectively. Moreover, the inhibition in assay [2] (setting [9]) was determined as 17.3 ± 1.53%; in assay [2] (setting [10]), 23.5 ± 1.64%; in assay [2] (setting [11]) it was 30.6 ± 1.49%; in assay [2] (setting [12]), 40.6 ± 1.46%. Besides, the results for the inhibition at 100 µg/mL in assay [3] and in assay [4] were 97.4% and 5%, respectively. Inhibition in assay [3] was half-maximal at 16.7 µg/mL (≈ 42.5 µM) (IC50). In addition, in the assay on p53 [5], the “p53 (Pg/50 mg Protein)” value stood at 29.58 ± 2.53 Pg/50 mg Protein. Besides, the entries for the “Bax (pg/50 mg Protein)” value in the assay with Bax [6] and in the assay with Bax [8] were 167.07 ± 4.83 pg/50 mg Protein and 191.07 ± 1.95 pg/50 mg Protein, respectively. Moreover, the “p53 (pg/50 mg Protein)” value in the assay on p53 [7] was 48.07 ± 1.94 pg/50 mg Protein.
In the case of `COc1cc2occc2c(OC)c1C1=NNC2(C1)C(=O)Nc1ccccc12` (stereo not shown) [Compound 11b, 5’-(4,6-Dimethoxy-benzofuran-5-yl)-2’,4’-dihydrospiro(indoline-3,3’-pyrazol)-2-one], the zone of inhibition at 20 µg/disc in the assay with B. subtilis (ATCC 6633) worked out at 12 mm; in assay [1], 18 mm. Moreover, the inhibition in assay [2] (setting [9]) was found to be 9.6 ± 1.77%; in [2] (setting [10]), 14.3 ± 1.52%; in [2] (setting [11]), 20.4 ± 1.65%; in [2] (setting [12]) it was 30.8 ± 2.04%. Besides, the figures for the inhibition at 100 µg/mL in assay [3] and in assay [4] were 92.3% and 10.1%, respectively. For the same compound, the IC50 in assay [3] amounted to 19.4 µg/mL (≈ 53.4 µM). In addition, the “p53 (Pg/50 mg Protein)” value in the assay with p53 [5] is 5.85 ± 0.75 Pg/50 mg Protein. In addition, the “Bax (pg/50 mg Protein)” value in the assay on Bax [6] worked out at 109.35 ± 4.05 pg/50 mg Protein; in the assay with Bax [8], 119.14 ± 1.65 pg/50 mg Protein. Moreover, the “p53 (pg/50 mg Protein)” value in the assay on p53 [7] came to 3.25 ± 0.15 pg/50 mg Protein.
